# Non-standard residues stand in square brackets, D forms with d. Residues, ends and D or L forms follow the SMILES beside them. NMeY = CN[C@@H](Cc1ccc(O)cc1)C(=O)O
# Legend:
# Type in all cases: functional, cell-based
# [1] = test system: T47D; experiment: Cytotoxicity against human T47D cells
# [2] = test system: DU-145; experiment: Cytotoxicity against human DU145 cells
# [3] = Cytotoxicity against human MM418c5 cells
compound,measurement,setting,value
CC[C@H](C)[C@@H]1NC(=O)[C@H](C(C)C)NC(=O)[C@@H]2CCCN2C(=O)[C@H](Cc2ccc(O)cc2)NC(=O)[C@H](Cc2ccc(O)cc2)N(C)C1=O [COTTESLOSIN A] (cyclo(I[NMeY]YPV)),EC50,[1],94 µg/mL
same,EC50,[2],90 µg/mL
same,EC50,[3],66 µg/mL

# Reference: ChEMBL document CHEMBL1151830, “Cottoquinazoline A and cotteslosins A and B, metabolites from an Australian marine-derived strain of Aspergillus versicolor” (J Nat Prod, 2009)
